In patent US11925654B2, “Esters of 2-deoxy-monosaccharides with anti proliferative activity” (Board of Regents, The University of Texas System, priority 2013, dated 2024):

Key:
U87 = assay: MTS cytotoxicity assay, 72 hours drug exposure, U87 brain tumor cells; assay type: cell-based; conditions: Homo sapiens, U-87 MG, final DMSO 0.5%
Experimental: (§1) In the first set of assays, IC50 values were determined for each compound after 72 hours of drug exposure in each of the tumor cell lines. Cell lines tested include D54, U87, Panc-1, AsPc-1, Colo357-FG, L3.6, H226, H352, H441 cell lines.
U87 is a human primary glioblastoma cell line formally known as U-87 MG. It has epithelial morphology, and was obtained from a patient with stage four cancer. U-87 MG can be obtained from the American Type Culture Collection (ATCC) where it is known by the accession number HTB-14. The entire sequence of the genome of U-87 MG has recently been published in PLoS Genetics, 2010 January; 6(1): e1000832. This is a hypodiploid human cell line with the modal chromosome number of 44 occurring in 48% of cells. The rate of higher ploidy was 5.9%. Twelve markers were common to all cells, including der(1)t(1;3) (p22;q21), der(16)t(1;16) (p22;p12), del(9) (p13) and nine others. The marker der(1) had two copies in most cells. There was only one copy of normal X. N1, N6 and N9 were not found.
(§2) All cell lines were maintained in respective growth media at 37° C., 5% CO2 and 98% humidity. Cells were treated with the compounds and all drug concentrations were diluted so that the final concentration of DMSO is 0.5%. The cytotoxic effect was measured by the MTS Assay (Tetrazolium), which is a colorimetric method for determining the number of viable cells. After the 72 hours of incubation with drug, Promega's MTS reagent were added to the cells according to manufacturer's instructions and incubated for 2 hours. The plates were read at 490 nm and the resulting data graphed with GraphPad Prism 5 software.
(§3) IC50 was calculated, which is approximate equivalent of IG50 (concentration at which 50% growth inhibition is measured). The IC50 values represent […] of the drug concentration.

Colo357-FG = assay: MTS cytotoxicity assay, 72 hours drug exposure, Colo357-FG pancreatic cancer cells; assay type: cell-based; conditions: Homo sapiens, COLO 357/FG, final DMSO 0.5%
Experimental: as §1
COLO 357 FG is continuous human cell line, COLO 357, with exceptional characteristics was derived from a metastasis of a pancreatic adenocarcinoma. COLO 357 grew as an adhering monolayer with a cell doubling time of 21 h and grew with 10% clonal efficiency in soft agar. COLO 357 cells had numerous lamellar inclusions. The cells elaborated the pancreatic enzymes trypsin, elastase and chymotrypsin. COLO 357 also secreted appreciable amounts of carcinoembryonic antigen and human chorionic gonadotropin. […] Nine nucleolar organizing regions were found by silver-stained metaphase preparations. COLO 357 has been “fingerprinted” for seven allelic isozymes.
as §2, §3

| SMILES | IC50 (U87) | IC50 (Colo357-FG) |
| --- | --- | --- |
| CCC(CC)C(=O)OCC1OC(O)CC(O)C1O [WP1319, 6-O-(2-Ethyl)Butyric-2-Deoxy-D-Glucopyranose] | 3000 µM | 1700 µM |
| CCC(CC)C(=O)OCC1OC(O)CC(O)C1OC(=O)C(CC)CC [WP1241, 4,6-Di-O-(2-Ethyl)Butyryl-2-Deoxy-α-D-Glucopyranose] | 123 µM | 280 µM |
| CCC(=O)OC1CC(O)C(O)C(CO)O1 (centres unmarked) [WP1216] | 3580 µM | – |
| O=C(OCC1OC(O)CC(OC(=O)C2CCCC2)C1O)C1CCCC1 (centres unmarked) [WP1343] | 109 µM | 750 µM |
| CCCC(CCC)C(=O)O[C@H]1C[C@@H](O)[C@H](O)[C@@H](CO)O1 [WP1490, 1-O-Valproyl-2-Deoxy-β-D-Glucopyranose] | 2400 µM | 2000 µM |
| CCC(CC)C(=O)OC1CC(OC(=O)C(CC)CC)C(O)C(CO)O1 [WP1261, 1,3-Di-O-(2-Ethyl)Butyryl-2-Deoxy-β-D-Glucopyranose] | 741 µM | 340 µM |
| CCC(=O)OCC1OC(O)CC(O)C1OC(=O)CC (centres unmarked) [WP1242] | 490 µM | 6380 µM |
| CCC(CC)C(=O)OCC1OCC(O)C(OC(=O)C(CC)CC)C1O (centres unmarked) [WP1357] | – | 540 µM |
| CCCC(=O)OC[C@H]1OC(OC(=O)CCC)C[C@@H](O)[C@@H]1O (stereo partly drawn) [WP1217, 1,6-Di-O-Butyryl-2-Deoxy-D-Glucopyranose] | 2330 µM | – |
| CCC(=O)OCC1OC(O)CC(OC(=O)CC)C1O (centres unmarked) [WP1231] | 380 µM | 550 µM |
| CCCC(CCC)C(=O)O[C@H]1[C@H](O)CC(O)O[C@@H]1CO (stereo partly drawn) [WP1513, 4-O-Valproyl-2-Deoxy-D-Glucopyranose] | 1200 µM | 1200 µM |
| CCC(CC)C(=O)OCC1OCCC(OC(=O)C(CC)CC)C1O (centres unmarked) [WP1317] | 2100 µM | 2100 µM |
| CCCCC(=O)OC[C@H]1OC(O)C[C@@H](O)[C@@H]1OC(=O)CCCC (stereo partly drawn) [WP1233, 4,6-Di-O-Valeroyl-2-Deoxy-D-Glucopyranose] | 200 µM | 230 µM |
| CCCC(CCC)C(=O)O[C@@H]1CC(O)O[C@H](CO)[C@H]1O (stereo partly drawn) [WP1512, 3-O-Valproyl-2-Deoxy-D-Glucopyranose] | 740 µM | – |
| CCCC(=O)OC[C@H]1OC(O)C[C@@H](O)[C@@H]1OC(=O)CCC (stereo partly drawn) [WP1214, 4,6-Di-O-Butyryl-2-Deoxy-D-Glucopyranose] | 300 µM | 440 µM |
| CCC(CC)C(=O)OC1CC(O)OC(CO)C1O [WP1342, 3-O-(2-Ethyl)Butyryl-2-Deoxy-D-Glucopyranose] | 2400 µM | 13200 µM |
| CCCCC(=O)OCC1OC(O)CC(OC(=O)CCCC)C1O (centres unmarked) [WP1232] | 250 µM | 490 µM |
| CCC(CC)C(=O)OCC1OC(O)CC(OC(=O)C(CC)CC)C1O (centres unmarked) [WP1234] | 55 µM | 100 µM |
| CCC(CC)C(=O)OC1CC(O)C(O)C(CO)O1 [WP1474, 1-O-(2-Ethyl)Butyryl-2-Deoxy-β-D-Glucopyranose] | 2400 µM | – |
| CCCC(=O)OCC1OC(O)CC(OC(=O)CCC)C1O (centres unmarked) [WP1213] | 240 µM | 380 µM |
| CCCC(CCC)C(=O)OC[C@H]1OC(O)C[C@@H](O)[C@@H]1O (stereo partly drawn) [WP1491, 6-O-Valproyl-2-Deoxy-D-Glucopyranose] | 2100 µM | – |
| CC(C)CC(=O)OCC1OC(O)CC(OC(=O)CC(C)C)C1O (centres unmarked) [WP1263] | 37 µM | 160 µM |
